# Measurements as given in ChEMBL document CHEMBL1151301, “Isolation of translactone-containing triterpenes with thrombin inhibitory activities from the leaves of Lantana camara” (J Nat Prod, 1998).
# Target: Prothrombin (Homo sapiens, UniProt P00734)
# Assay: Inhibition of human thrombin by fibrinogen-clot assay
row,SMILES,IC50
1,CC(=O)O[C@@H]1CC[C@@]2(C)[C@@H](CC=C3[C@@H]2C[C@H](O)[C@@]2(C)[C@H]4[C@H](C[C@]32C)OC(=O)[C@@H]4CC(=O)C=C(C)C)[C@]1(C)C(=O)O,90 nM
2,CC(=O)OC[C@]12C[C@@H]3OC(=O)[C@H](CC(=O)C=C(C)C)[C@H]3[C@]1(C)[C@@H](O)C[C@H]1C2=CC[C@@H]2[C@]1(C)CC[C@@H](OC(C)=O)[C@@]2(C)C(=O)O[C@@H]1O[C@H](CO)[C@@H](O)[C@H](O)[C@H]1O,70 nM
3,CC(=O)O[C@@H]1CC[C@@]2(C)[C@@H](CC=C3[C@@H]2CC[C@@]2(C)[C@H]4[C@H](C[C@]32C)OC(=O)[C@@H]4CC(=O)C=C(C)C)[C@]1(C)C(=O)O,18 nM
4,CC(=O)O[C@@H]1CC[C@@]2(C)[C@@H](CC=C3[C@@H]2C[C@H](O)[C@@]2(C)[C@H]4[C@H](C[C@]32CO)OC(=O)[C@@H]4CC(=O)C=C(C)C)[C@]1(C)C(=O)O[C@@H]1O[C@H](CO)[C@@H](O)[C@H](O)[C@H]1O,130 nM
5,CC(C)=CC(=O)C[C@H]1C(=O)O[C@H]2C[C@]3(C)C4=CC[C@@H]5[C@](C)(CC[C@H]6OC(=O)[C@@]56C)[C@H]4CC[C@@]3(C)[C@@H]21,50 nM
